Patent US7659289B2, “Hydroxyethylene-based β-secretase inhibitors and use thereof” (CoMentis, Inc., priority 2004, dated 2010)

Tests used:
Cathepsin D = Cathepsin D (Homo sapiens, UniProt P07339); test: Inhibition of cathepsin D activity (MALDI-TOF, substrate peptide […]); format: biochemical; conditions: pH 4.1, 37 degrees C., read-out: Cath D Ki
Aβ production = test: Cellular Aβ IC50 determination (Aβ40 sandwich ELISA); format: cell-based; conditions: Cricetulus griseus; Aβ40, Chinese hamster ovary cells over-expressing human APP695 with London and Swedish mutations, 24 h incubation
Procedure: The potency of compounds against memapsin 2 activity was determined in a cellular assay of Aβ production. […] Chinese hamster ovary cells that over-express human APP695 with the London and Swedish mutations were seeded in multi-well plates at 10% confluency. Compounds were dissolved in DMSO to concentrations near 1 mM, and diluted into culture media to a final concentration near 4 μM (final 0.4% DMSO). Compounds were diluted serially and applied to cells in multi-well plates 48 h after seeding. Incubation was continued in 5% CO2 at 37 degrees C. for 24 h. Aliquots were removed and assayed for Aβ40 content using a sandwich ELISA (BioSource International). Amount of Aβ40 over the range of concentration of compounds, relative to control incubations, were fit to a 4-parameter IC50 model.

memapsin 2 = memapsin 2 (Homo sapiens, UniProt P56817); test: Inhibition of memapsin 2 beta-secretase activity toward fluorogenic substrate FS-2; format: biochemical; conditions: pH 4, 37° C., 20 minutes pre-incubation, fluorogenic substrate FS-2, tight-binding model; read-out: M2 Ki
Chain of memapsin 2 (P56817 46-501): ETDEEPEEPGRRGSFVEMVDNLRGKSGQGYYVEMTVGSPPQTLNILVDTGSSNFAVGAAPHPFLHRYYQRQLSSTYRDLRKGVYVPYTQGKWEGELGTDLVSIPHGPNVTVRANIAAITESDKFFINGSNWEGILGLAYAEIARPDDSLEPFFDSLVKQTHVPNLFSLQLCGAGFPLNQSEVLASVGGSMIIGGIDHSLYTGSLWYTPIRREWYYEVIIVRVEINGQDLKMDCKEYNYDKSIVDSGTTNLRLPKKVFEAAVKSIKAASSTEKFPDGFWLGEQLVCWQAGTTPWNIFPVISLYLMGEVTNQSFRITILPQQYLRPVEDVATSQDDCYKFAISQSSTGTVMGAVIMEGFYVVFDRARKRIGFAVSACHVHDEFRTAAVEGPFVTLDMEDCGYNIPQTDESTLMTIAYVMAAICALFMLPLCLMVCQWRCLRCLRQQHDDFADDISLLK

Chain of Cathepsin D (P07339 65-412, species assumed): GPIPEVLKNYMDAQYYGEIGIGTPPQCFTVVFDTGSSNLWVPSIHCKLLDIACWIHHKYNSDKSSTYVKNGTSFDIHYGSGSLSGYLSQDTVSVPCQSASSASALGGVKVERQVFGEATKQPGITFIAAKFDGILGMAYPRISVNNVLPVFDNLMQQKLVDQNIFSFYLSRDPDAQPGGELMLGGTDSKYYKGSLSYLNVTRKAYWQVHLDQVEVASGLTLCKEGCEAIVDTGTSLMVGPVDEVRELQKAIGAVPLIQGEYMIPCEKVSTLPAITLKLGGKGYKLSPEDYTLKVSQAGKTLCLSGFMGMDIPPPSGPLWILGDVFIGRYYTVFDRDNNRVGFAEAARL

| Ki (Cathepsin D) | IC50 (Aβ production) | Ki (memapsin 2) | Structure (SMILES) |
| --- | --- | --- | --- |
| < 0.1 µM | < 6 µM | < 0.1 µM | Cc1csc(C[C@H](C)C(=O)N[C@@H](CNC(=O)O[C@H]2CCOC2)C(=O)N[C@@H](CC(C)C)[C@@H](O)C[C@@H](C)C(=O)N[C@H](C(=O)NCC(C)C)C(C)C)n1 [(S)-tetrahydrofuran-3-yl(S)-3-((4S,5S,7R)-5-hydroxy-8-((S)-1-(isobutylamino)-3-methyl-1-oxobutan-2-ylamino)2,7-dimethyl-8-oxooctan-4-ylamino)-2-((S)-2-methyl-3-(4-methylthiazol-2-yl)propanamido)-3-oxopropylcarbamate] |
| < 0.1 µM | 6 to 100 µM | < 0.1 µM | CC[C@@H](Cn1nc(C)cc1C)C(=O)N[C@@H](CNC(=O)OC(C)(C)C)C(=O)N[C@@H](CC(C)C)[C@@H](O)C[C@@H](C)C(=O)N[C@H](C(=O)NCC(F)(F)F)C(C)C [tert-butyl (S)-2-((S)-2-((3,5-dimethyl-1H-pyrazol-1-yl)methyl)butanamido)-3-((4S,5S,7R)-5-hydroxy-2,7-dimethyl-8-((S)-3-methyl-1-oxo-1-(2,2,2-trifluoroethylamino)butan-2-ylamino)-8-oxooctan-4-ylamino)-3-oxopropylcarbamate] |
| < 0.1 µM | < 6 µM | < 0.1 µM | CC[C@@H](Cc1nc(C)cs1)C(=O)N[C@@H](CNC(=O)OC(C)(C)C)C(=O)N[C@@H](CC(C)C)[C@@H](O)C[C@@H](C)C(=O)N[C@H](C(=O)NCC(C)C)C(C)C [tert-butyl (S)-3-((4S,5S,7R)-5-hydroxy-8-((S)-1-(isobutylamino)-3-methyl-1-oxobutan-2-ylamino)-2,7-dimethyl-8-oxooctan-4-ylamino)-2-((S)-2-((4-methylthiazol-2-yl)methyl)butanamido)-3-oxopropylcarbamate] |
| < 0.1 µM | < 6 µM | < 0.1 µM | Cc1csc(C[C@H](C)C(=O)N[C@@H](CNC(=O)O[C@@H]2CCOC2)C(=O)N[C@@H](CC(C)C)[C@@H](O)C[C@@H](C)C(=O)N[C@H](C(=O)NCC(C)C)C(C)C)n1 [(R)-tetrahydrofuran-3-yl (S)-3-((4S,5S,7R)-5-hydroxy-8-((S)-1-(isobutylamino)-3-methyl-1-oxobutan-2-ylamino)2,7-dimethyl-8-oxooctan-4-ylamino)-2-((S)-2-methyl-3-(4-methylthiazol-2-yl)propanamido)-3-oxopropylcarbamate] |
| < 0.1 µM | < 6 µM | < 0.1 µM | COCCOC(=O)NC[C@H](NC(=O)[C@@H](C)Cc1nc(C)cs1)C(=O)N[C@@H](CC(C)C)[C@@H](O)C[C@@H](C)C(=O)N[C@H](C(=O)NCC(C)C)C(C)C [2-methoxyethyl (S)-3-((4S,5S,7R)-5-hydroxy-8-((S)-1-(isobutylamino)-3-methyl-1-oxobutan-2-ylamino)-2,7-dimethyl-8-oxooctan-4-ylamino)-2-((S)-2-methyl-3-(4-methylthiazol-2-yl)propanamido)-3-oxopropylcarbamate] |
| < 0.1 µM | 6 to 100 µM | 0.1 to 0.6 µM | Cc1cc(C)n(CC(N=[N+]=[N-])C(=O)N[C@@H](CNC(=O)OC(C)(C)C)C(=O)N[C@@H](CC(C)C)[C@@H](O)C[C@@H](C)C(=O)N[C@H](C(=O)NCC(C)C)C(C)C)n1 (stereo partly drawn) [tert-butyl (2S)-2-(2-azido-3-(3,5-dimethyl-1H-pyrazol-1-yl)propanamido)-3-((4S,5S,7R)-5-hydroxy-8-((S)-1-(isobutylamino)-3-methyl-1-oxobutan-2-ylamino)-2,7-dimethyl-8-oxooctan-4-ylamino)-3-oxopropylcarbamate] |
| < 0.1 µM | < 6 µM | < 0.1 µM | Cc1csc(COC(=O)NC[C@H](NC(=O)[C@@H](C)Cc2nc(C)cs2)C(=O)N[C@@H](CC(C)C)[C@@H](O)C[C@@H](C)C(=O)N[C@H](C(=O)NCC(C)C)C(C)C)n1 [(4-methylthiazol-2-yl)methyl (S)-3-((4S,5S,7R)-5-hydroxy-8-((S)-1-(isobutylamino)-3-methyl-1-oxobutan-2-ylamino)-2,7-dimethyl-8-oxooctan-4-ylamino)-2-((S)-2-methyl-3-(4-methylthiazol-2-yl)propanamido)-3-oxopropylcarbamate] |
| < 0.1 µM | > 100 µM | 0.1 to 0.6 µM | COC(Cn1nc(C)cc1C)C(=O)N[C@@H](CNC(=O)OC(C)(C)C)C(=O)N[C@@H](CC(C)C)[C@@H](O)C[C@@H](C)C(=O)N[C@H](C(=O)NCC(C)C)C(C)C (stereo partly drawn) [tert-butyl (2S)-2-(3-(3,5-dimethyl-1H-pyrazol-1-yl)-2-methoxypropanamido)-3-((4S,5S,7R)-5-hydroxy-8-((S)-1-(isobutylamino)-3-methyl-1-oxobutan-2-ylamino)-2,7-dimethyl-8-oxooctan-4-ylamino)-3-oxopropylcarbamate] |
| 0.1 to 0.6 µM | 6 to 100 µM | 0.1 to 0.6 µM | Cc1csc(C[C@H](C)C(=O)N[C@@H](CN)C(=O)N[C@@H](CC(C)C)[C@@H](O)C[C@@H](C)C(=O)N[C@H](C(=O)NCC(C)C)C(C)C)n1 [(2R,4S,5S)-5-((S)-3-amino-2-((S)-2-methyl-3-(4-methylthiazol-2-yl)propanamido)propanamido)-4-hydroxy-N-((S)-1-(isobutylamino)-3-methyl-1-oxobutan-2-yl)-2,7-dimethyloctanamide] |
| 0.1 to 0.6 µM | > 100 µM | 0.1 to 0.6 µM | Cc1cc(C)n(CC(N)C(=O)N[C@@H](CNC(=O)OC(C)(C)C)C(=O)N[C@@H](CC(C)C)[C@@H](O)C[C@@H](C)C(=O)N[C@H](C(=O)NCC(C)C)C(C)C)n1 (stereo partly drawn) [tert-butyl (2S)-2-(2-amino-3-(3,5-dimethyl-1H-pyrazol-1-yl)propanamido)-3-((4S,5S,7R)-5-hydroxy-8-((S)-1-(isobutylamino)-3-methyl-1-oxobutan-2-ylamino)-2,7-dimethyl-8-oxooctan-4-ylamino)-3-oxopropylcarbamate] |
| < 0.1 µM | 6 to 100 µM | < 0.1 µM | CCC(Cn1nc(C)cc1C)C(=O)N[C@@H](CNC(=O)OCCF)C(=O)N[C@@H](CC(C)C)[C@@H](O)C[C@@H](C)C(=O)N[C@H](C(=O)NCC(C)C)C(C)C (stereo partly drawn) [2-fluoroethyl (2S)-2-(2-((3,5-dimethyl-1H-pyrazol-1-yl)methyl)butanamido)-3-((4S,5S,7R)-5-hydroxy-8-((S)-1-(isobutylamino)-3-methyl-1-oxobutan-2-ylamino)-2,7-dimethyl-8-oxooctan-4-ylamino)-3-oxopropylcarbamate] |
| 0.1 to 0.6 µM | < 6 µM | < 0.1 µM | Cc1csc(C[C@H](C)C(=O)N[C@@H](CNC(=O)OC(C)(C)C)C(=O)N[C@@H](CC(C)C)[C@@H](O)C[C@@H](C)C(=O)N[C@H](C(=O)NN(C)C)C(C)C)n1 [tert-butyl (S)-3-((4S,5S,7R)-8-((S)-1-(2,2-dimethylhydrazinyl)-3-methyl-1-oxobutan-2-ylamino)-5-hydroxy-2,7-dimethyl-8-oxooctan-4-ylamino)-2-((S)-2-methyl-3-(4-methylthiazol-2-yl)propanamido)-3-oxopropylcarbamate] |
| < 0.1 µM | < 6 µM | < 0.1 µM | CC[C@H](C[C@H](O)[C@H](CC(C)C)NC(=O)[C@H](CNC(=O)OC(C)(C)C)NC(=O)[C@@H](C)Cc1nc(C)cs1)C(=O)N[C@H](C(=O)NCC(C)C)C(C)C [tert-butyl (S)-3-((4S,5S,7R)-5-hydroxy-7-((S)-1-(isobutylamino)-3-methyl-1-oxobutan-2-ylcarbamoyl)-2-methylnonan-4-ylamino)-2-((S)-2-methyl-3-(4-methylthiazol-2-yl)propanamido)-3-oxopropylcarbamate] |
